Experimental data taken from ChEMBL document CHEMBL4725218, “Deep Learning Enhancing Kinome-Wide Polypharmacology Profiling: Model Construction and Experiment Validation” (J Med Chem, 2020).

Experiments:
[1] = target: Tyrosine-protein kinase ABL1 (Homo sapiens) (UniProt P00519); assay: Inhibition of human ABL assessed as remaining enzyme activity at 0.01 uM
[2] = target: Macrophage colony-stimulating factor 1 receptor (Homo sapiens) (UniProt P07333); assay: Inhibition of human FMS assessed as remaining enzyme activity at 1 uM
[3] = target: T1, Homeodomain-interacting protein kinase 4 (Homo sapiens) (UniProt Q8NE63); assay: Inhibition of human HIPK4 assessed as remaining enzyme activity at 0.1 uM
T1 sequence (whole entry): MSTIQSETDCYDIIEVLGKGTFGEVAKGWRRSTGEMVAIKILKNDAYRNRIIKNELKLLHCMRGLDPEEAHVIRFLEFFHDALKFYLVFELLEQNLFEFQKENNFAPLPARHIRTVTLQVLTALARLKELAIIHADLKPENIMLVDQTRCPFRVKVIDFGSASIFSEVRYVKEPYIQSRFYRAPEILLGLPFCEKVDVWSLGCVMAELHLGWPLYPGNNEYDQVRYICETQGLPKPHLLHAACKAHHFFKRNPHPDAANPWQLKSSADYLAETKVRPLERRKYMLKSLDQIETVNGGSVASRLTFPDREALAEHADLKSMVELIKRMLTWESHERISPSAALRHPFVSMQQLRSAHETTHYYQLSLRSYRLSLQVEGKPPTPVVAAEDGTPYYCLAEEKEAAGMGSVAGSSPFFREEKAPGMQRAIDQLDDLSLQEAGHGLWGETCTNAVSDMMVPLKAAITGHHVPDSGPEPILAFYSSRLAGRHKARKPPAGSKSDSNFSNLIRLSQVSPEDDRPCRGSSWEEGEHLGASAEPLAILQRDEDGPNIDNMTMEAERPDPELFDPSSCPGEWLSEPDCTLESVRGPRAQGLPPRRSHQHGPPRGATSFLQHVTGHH

[4] = target: Tyrosine-protein kinase Blk (Mus musculus) (UniProt P16277); assay: Inhibition of mouse BLK assessed as remaining enzyme activity at 0.1 uM
[5] = target: Homeodomain-interacting protein kinase 3 (Homo sapiens) (UniProt Q9H422); assay: Inhibition of human HIPK3 assessed as remaining enzyme activity at 1 uM
Sequence of Homeodomain-interacting protein kinase 3 (Homo sapiens) (Q9H422 whole entry, looked up): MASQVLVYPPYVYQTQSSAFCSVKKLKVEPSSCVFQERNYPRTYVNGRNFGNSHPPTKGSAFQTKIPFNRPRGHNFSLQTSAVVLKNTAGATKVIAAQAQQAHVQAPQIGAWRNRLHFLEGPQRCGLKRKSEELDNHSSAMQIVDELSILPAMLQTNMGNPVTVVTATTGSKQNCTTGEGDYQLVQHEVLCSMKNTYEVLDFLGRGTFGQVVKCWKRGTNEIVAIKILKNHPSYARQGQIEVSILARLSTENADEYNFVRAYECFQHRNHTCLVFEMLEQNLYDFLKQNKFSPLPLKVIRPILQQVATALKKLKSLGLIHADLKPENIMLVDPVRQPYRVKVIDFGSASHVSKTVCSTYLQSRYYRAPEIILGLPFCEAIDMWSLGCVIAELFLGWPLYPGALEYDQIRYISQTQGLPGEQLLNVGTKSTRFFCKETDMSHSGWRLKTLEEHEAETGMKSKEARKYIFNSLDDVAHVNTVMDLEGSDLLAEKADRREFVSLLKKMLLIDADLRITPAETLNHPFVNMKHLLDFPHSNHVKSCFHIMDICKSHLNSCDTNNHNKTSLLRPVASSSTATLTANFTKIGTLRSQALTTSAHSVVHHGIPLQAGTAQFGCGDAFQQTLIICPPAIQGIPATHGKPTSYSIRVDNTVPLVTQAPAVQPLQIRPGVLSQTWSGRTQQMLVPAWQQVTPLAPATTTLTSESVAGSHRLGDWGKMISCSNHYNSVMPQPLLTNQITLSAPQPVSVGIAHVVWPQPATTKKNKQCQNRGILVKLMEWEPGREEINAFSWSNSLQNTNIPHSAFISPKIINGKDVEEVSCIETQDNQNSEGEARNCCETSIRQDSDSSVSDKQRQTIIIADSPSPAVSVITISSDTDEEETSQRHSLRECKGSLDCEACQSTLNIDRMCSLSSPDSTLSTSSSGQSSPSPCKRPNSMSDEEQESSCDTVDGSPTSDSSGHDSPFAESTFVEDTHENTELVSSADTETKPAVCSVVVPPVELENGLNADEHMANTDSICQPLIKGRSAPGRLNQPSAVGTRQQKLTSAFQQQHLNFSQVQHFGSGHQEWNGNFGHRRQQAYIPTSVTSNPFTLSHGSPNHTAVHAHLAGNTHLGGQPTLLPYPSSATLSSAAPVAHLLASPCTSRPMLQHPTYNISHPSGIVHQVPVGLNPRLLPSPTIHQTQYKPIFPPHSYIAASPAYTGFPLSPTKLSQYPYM

Sequence of Tyrosine-protein kinase Blk (Mus musculus) (P16277 whole entry): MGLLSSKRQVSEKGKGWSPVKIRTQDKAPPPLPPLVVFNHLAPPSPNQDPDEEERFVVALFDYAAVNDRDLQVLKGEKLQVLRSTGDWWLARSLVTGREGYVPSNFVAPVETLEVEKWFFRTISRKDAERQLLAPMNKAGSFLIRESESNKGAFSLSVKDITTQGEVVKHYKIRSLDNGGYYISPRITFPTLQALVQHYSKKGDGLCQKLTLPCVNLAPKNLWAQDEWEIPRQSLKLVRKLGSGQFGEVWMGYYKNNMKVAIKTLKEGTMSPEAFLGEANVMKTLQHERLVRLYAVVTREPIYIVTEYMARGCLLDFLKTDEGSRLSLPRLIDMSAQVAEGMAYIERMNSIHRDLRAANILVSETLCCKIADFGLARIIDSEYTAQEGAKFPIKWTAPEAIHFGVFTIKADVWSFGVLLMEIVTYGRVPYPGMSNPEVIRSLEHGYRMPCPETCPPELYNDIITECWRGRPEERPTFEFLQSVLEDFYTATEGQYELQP
Sequence of Macrophage colony-stimulating factor 1 receptor (Homo sapiens) (P07333 whole entry): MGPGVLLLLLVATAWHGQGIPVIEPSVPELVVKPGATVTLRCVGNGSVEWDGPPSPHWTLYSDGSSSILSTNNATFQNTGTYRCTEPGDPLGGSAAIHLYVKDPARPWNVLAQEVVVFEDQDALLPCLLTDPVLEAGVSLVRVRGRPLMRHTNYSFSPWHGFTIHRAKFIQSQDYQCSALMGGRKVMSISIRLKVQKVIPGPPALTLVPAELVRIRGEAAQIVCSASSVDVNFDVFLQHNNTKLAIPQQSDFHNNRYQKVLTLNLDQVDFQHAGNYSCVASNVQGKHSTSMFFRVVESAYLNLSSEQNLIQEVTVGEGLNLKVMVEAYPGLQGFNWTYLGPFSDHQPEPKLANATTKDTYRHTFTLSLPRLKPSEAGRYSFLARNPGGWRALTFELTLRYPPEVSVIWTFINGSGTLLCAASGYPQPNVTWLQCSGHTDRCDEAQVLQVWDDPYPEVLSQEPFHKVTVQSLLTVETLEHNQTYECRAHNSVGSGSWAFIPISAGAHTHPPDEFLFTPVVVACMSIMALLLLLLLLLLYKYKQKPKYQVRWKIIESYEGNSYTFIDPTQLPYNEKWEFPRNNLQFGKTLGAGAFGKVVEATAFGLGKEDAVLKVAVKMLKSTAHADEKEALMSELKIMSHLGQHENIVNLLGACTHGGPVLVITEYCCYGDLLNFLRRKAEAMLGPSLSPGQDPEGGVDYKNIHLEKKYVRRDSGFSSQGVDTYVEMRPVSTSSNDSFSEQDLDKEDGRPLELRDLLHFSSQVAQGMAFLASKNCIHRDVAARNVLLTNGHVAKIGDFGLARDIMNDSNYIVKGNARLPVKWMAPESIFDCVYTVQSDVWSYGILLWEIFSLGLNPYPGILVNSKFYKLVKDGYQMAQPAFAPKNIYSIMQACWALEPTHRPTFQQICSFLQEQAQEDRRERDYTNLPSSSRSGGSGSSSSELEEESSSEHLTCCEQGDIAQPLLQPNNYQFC
Sequence of Tyrosine-protein kinase ABL1 (Homo sapiens) (P00519 whole entry): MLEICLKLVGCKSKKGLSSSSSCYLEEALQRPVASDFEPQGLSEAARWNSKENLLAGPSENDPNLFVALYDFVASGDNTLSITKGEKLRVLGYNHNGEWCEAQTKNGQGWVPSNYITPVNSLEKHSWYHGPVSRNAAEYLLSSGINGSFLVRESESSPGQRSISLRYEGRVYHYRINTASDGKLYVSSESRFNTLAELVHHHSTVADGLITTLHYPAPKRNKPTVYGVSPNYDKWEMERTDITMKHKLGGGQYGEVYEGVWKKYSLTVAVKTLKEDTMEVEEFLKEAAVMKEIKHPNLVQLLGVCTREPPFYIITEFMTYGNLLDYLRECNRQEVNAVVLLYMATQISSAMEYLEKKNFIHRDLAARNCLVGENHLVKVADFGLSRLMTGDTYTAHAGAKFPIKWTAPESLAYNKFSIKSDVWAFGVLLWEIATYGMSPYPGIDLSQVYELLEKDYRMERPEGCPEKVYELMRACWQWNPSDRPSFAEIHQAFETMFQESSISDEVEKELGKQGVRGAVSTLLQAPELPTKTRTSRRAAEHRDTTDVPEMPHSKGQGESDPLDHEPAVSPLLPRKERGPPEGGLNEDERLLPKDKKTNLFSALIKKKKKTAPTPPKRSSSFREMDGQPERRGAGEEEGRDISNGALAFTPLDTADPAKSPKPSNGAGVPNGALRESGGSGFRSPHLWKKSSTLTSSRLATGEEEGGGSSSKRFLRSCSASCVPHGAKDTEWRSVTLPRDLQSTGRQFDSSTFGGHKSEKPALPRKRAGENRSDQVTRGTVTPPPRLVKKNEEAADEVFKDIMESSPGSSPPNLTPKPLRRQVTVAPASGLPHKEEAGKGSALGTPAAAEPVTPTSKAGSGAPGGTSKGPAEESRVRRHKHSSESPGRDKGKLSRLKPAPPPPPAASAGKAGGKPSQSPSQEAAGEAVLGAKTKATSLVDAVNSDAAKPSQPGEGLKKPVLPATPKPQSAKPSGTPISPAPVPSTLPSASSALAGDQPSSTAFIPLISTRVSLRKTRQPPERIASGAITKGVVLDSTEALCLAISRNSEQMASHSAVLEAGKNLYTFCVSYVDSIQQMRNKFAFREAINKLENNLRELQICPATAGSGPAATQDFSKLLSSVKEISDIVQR

Activity [1]: 79%
Activity [2]: 10%
Activity [3]: 3%
Activity [4]: 45%
Activity [5]: 12%
SMILES: CNC(=O)c1cc(Oc2ccc(NC(=O)Nc3ccc(Cl)c(C(F)(F)F)c3)c(F)c2)ccn1
